Nine compounds from patent US11149011B2, “Compounds and methods for IDO and TDO modulation, and indications therefor” (Plexxikon Inc., priority 2018, dated 2021) can be followed below.

One may read the IC50 as the concentration needed to halve the response being measured.

Molecules are shown by their SMILES.

In one test the target is T1, IDO1 (Homo sapiens, UniProt P14902).
T1 construct: His tag (N); made in house; host or cells: E. coli
As to the kind of experiment: IDO enzymatic assay. The note with it: geometric mean; read-out: IDO1 GMean: IC50 (μM) (Biochemical Assay). It is filed as biochemical. The procedure:
(§1) Human IDO or TDO with N-terminal His tag is purified in E. coli. The IDO enzymatic assay is performed using 6 nM IDO and 10 μM L-Trp in the presence of 10 mM ascorbic acid, 5 μM methylene blue, 100 nM catalase and 0.01% Tween 20 in 50 mM sodium phosphate buffer (pH 6.5). 19 μL of above reaction mixture is added to wells of 384 well reaction plate containing 1 μL of various concentrations of test compound or DMSO vehicle and incubated for 20 minutes at room temperature. The TDO enzymatic reaction assay is performed using 1 nM TDO and 350 μM L-Trp in the presence of 10 mM ascorbic acid, 0.4 μM methylene blue, 100 nM catalase and 0.01% Tween 20 in 50 mM sodium phosphate buffer (pH 6.5). 19 μL of above reaction mixture is added to wells of 384 well reaction plate containing 1 μL of various concentrations of test compound or DMSO vehicle and incubated for 70 minutes at room temperature. 16 wells containing all the components of reaction mixture and 5% DMSO serve as high control. 16 well containing all the components except enzyme of reaction mixture and 5% DMSO serves as low control. Both IDO and TDO enzymatic reactions are stopped by addition of 4 μL of 30% TCA and incubated 30 minutes at 50° C. to hydrolyze N-formylkynurenine produced by IDO or TDO to kynurenine. Upon measuring the kynurenine level, the percentage inhibition is calculated at individual concentrations relative to high and low controls. The data is analyzed by using nonlinear regression to generate IC50 values.

Test [1] deals with T2, IDO1-expressing HEK293 cell clones (Homo sapiens, UniProt P14902).
T2 construct: expressed in transfected cells; host or cells: HEK293
Description: Cell based kynurenine assay, IDO1-expressing HEK293 cell clones. The note with it: HEK293 cells, 24 hours of incubation, geometric mean; read-out: HEK293 IDO1 Kynurenine GMean IC50 (μM) (Cellular Assay). As to the method:
(§2) IDO1-expressing or TDO-expressing HEK293 cell clones are generated upon stable transfection of plasmids expressing human IDO or human TDO under the control of CMV promoter. Cells are selected in DMEM media supplemented with 10% fetal bovine serum and 1 mg/ml G418 at 37° C. in a humidified incubator supplied with 5% CO2. The assays are performed as follows.
(§3) Cells were seeded in a 96 well plate in 50 μL of culture media at a density of 2.5×10^4 per well. Serial dilutions of compounds (in total volume of 50 μL culture media) are added into cells. 4 wells containing 0.2% DMSO treated cells serve as high controls and 4 wells containing media only with 0.2% DMSO serve as low controls. After 24 hours of incubation, the supernatant was transferred to a 384 well reaction plate and the kynurenine level determined. The percentage inhibition at individual concentrations relative to high and low controls is calculated. The data is analyzed by using nonlinear regression to generate IC50 values.

Another test deals with T3, TDO (Homo sapiens, UniProt P48775).
T3 construct: His tag (N); made in house; host or cells: E. coli
Description: TDO enzymatic assay. The note with it: geometric mean; read-out: TDO GMean: IC50 (μM) (Biochemical Assay). As to the method:
as §1

For test [2], the target named is T4, TDO-expressing HEK293 cell clones (Homo sapiens, UniProt P48775).
T4 construct: expressed in transfected cells; host or cells: HEK293
As to the kind of experiment: Cell based kynurenine assay, TDO-expressing HEK293 cell clones. The note with it: HEK293 cells, 24 hours of incubation, geometric mean; read-out: HEK293 TDO Kynurenine GMean IC50 (μM) (Cellular Assay). The procedure: as §2, §3

T3 sequence (P48775 whole entry): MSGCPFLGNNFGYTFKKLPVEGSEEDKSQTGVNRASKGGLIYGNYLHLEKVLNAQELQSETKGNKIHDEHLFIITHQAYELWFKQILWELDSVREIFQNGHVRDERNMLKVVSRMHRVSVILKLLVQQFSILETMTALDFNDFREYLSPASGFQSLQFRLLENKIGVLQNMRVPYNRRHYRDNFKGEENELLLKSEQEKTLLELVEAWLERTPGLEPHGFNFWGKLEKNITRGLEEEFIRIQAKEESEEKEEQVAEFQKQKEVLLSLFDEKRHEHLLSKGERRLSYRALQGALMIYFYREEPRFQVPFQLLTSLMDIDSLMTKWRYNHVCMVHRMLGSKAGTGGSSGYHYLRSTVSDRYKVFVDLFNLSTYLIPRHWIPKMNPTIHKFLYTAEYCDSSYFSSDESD
T4 sequence (P48775 whole entry): as above
T1 sequence (P14902 whole entry): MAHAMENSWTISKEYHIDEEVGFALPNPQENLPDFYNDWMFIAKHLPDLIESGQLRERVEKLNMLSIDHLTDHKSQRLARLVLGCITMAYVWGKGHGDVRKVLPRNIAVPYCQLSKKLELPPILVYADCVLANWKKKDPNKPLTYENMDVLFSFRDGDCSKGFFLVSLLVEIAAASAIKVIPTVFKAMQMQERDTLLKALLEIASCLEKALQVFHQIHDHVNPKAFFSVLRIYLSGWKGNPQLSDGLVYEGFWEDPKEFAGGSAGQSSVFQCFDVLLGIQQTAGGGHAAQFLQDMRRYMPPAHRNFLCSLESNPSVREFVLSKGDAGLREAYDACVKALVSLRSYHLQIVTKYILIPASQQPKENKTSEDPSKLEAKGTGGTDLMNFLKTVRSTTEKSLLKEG
T2 sequence (P14902 whole entry): as above

Turning to `CC(C)(C1CCN(C(=O)NC2CCOCC2)CC1)C(O)c1cc(Cl)cc2[nH]ncc12` (stereo not drawn) [Compound P-0079, 4-(1-(6-chloro-1H-indazol-4-yl)-1-hydroxy-2-methylpropan-2-yl)-N-(tetrahydro-2H-pyran-4-yl)piperidine-1-carboxamide], the IC50 (at IDO1; in test [1]; at TDO; in test [2]) was 0.0001 to 10 µM each time.

Consider `CC(C)(C1CCN(C(=O)NCCS(C)(=O)=O)CC1)C(O)c1cc(Cl)cc2[nH]ncc12` (stereo not drawn) [Compound P-0085, 4-(1-(6-chloro-1H-indazol-4-yl)-1-hydroxy-2-methylpropan-2-yl)-N-(2-(methylsulfonyl)ethyl)piperidine-1-carboxamide], for which the IC50 on IDO1 was 0.0001 to 10 µM; in test [1], over 10 µM; on TDO it was 0.0001 to 10 µM; in test [2] it was 0.0001 to 10 µM.

In the case of `CC(C)(C1CCN(C(=O)CN)CC1)[C@H](O)c1cc(Cl)cc2cn[nH]c12` [Compound P-0126, (S)-2-amino-1-(4-(1-(5-chloro-1H-indazol-7-yl)-1-hydroxy-2-methylpropan-2-yl)piperidin-1-yl)ethan-1-one], the half-maximal inhibitory concentration (IC50) (at IDO1; in test [1]; at TDO; in test [2]) was 0.0001 to 10 µM in each case.

In the case of `N#CCC(=O)N1CCC(C(F)(F)C(=O)c2c(F)c(Cl)cc3cn[nH]c23)CC1` [Compound P-0033, 3-(4-(2-(5-chloro-6-fluoro-1H-indazol-7-yl)-1,1-difluoro-2-oxoethyl)piperidin-1-yl)-3-oxopropanenitrile], the 50% inhibitory concentration (IC50) was 0.0001 to 10 µM on IDO1, 0.0001 to 10 µM in test [1], 0.0001 to 10 µM at TDO and over 10 µM in test [2].

For `CCS(=O)(=O)N1CCC(C(C)(C)[C@@H](O)c2cc(Cl)cc3[nH]ncc23)CC1` [Compound P-0148, (R)-1-(6-chloro-1H-indazol-4-yl)-2-(1-(ethylsulfonyl)piperidin-4-yl)-2-methylpropan-1-ol], the IC50 on IDO1 is 0.0001 to 10 µM; in test [1] it was over 10 µM; on TDO, 0.0001 to 10 µM; in test [2], 0.0001 to 10 µM.

As to `O=C(NCC1CC1)N1CCC(C(F)(F)C(=O)c2c(F)c(Cl)cc3cn[nH]c23)CC1` [Compound P-0036, 4-(2-(5-chloro-6-fluoro-1H-indazol-7-yl)-1,1-difluoro-2-oxoethyl)-N-(cyclopropylmethyl)piperidine-1-carboxamide], the concentration for half-maximal inhibition (IC50) (at IDO1; in test [1]; on TDO; in test [2]) was 0.0001 to 10 µM in each case.

`CCS(=O)(=O)N1CCC(C(C)(C)[C@H](O)c2cc(Cl)cc3[nH]ncc23)CC1` [Compound P-0147, (S)-1-(6-chloro-1H-indazol-4-yl)-2-(1-(ethylsulfonyl)piperidin-4-yl)-2-methylpropan-1-ol]: the 50% inhibitory concentration (IC50) on IDO1 was 0.0001 to 10 µM; in test [1], over 10 µM; at TDO, 0.0001 to 10 µM; in test [2], 0.0001 to 10 µM.

In the case of `C[C@@H](NC(=O)N1CCC(C(C)(C)[C@H](O)c2cc(Cl)cc3cn[nH]c23)CC1)c1ccccn1` [Compound P-0028, 4-((S)-1-(5-chloro-1H-indazol-7-yl)-1-hydroxy-2-methylpropan-2-yl)-N-((R)-1-(pyridin-2-yl)ethyl)piperidine-1-carboxamide], the IC50 (on IDO1; in test [1]; at TDO; in test [2]) was 0.0001 to 10 µM throughout.

Regarding `CC(C)(C1CCN(C(=O)c2cccnc2)CC1)C(O)c1cc(Cl)cc2[nH]ncc12` (stereo not drawn) [Compound P-0044, (4-(1-(6-chloro-1H-indazol-4-yl)-1-hydroxy-2-methylpropan-2-yl)piperidin-1-yl)(pyridin-3-yl)methanone], the concentration for half-maximal inhibition (IC50) (at IDO1; in test [1]; on TDO; in test [2]) was 0.0001 to 10 µM throughout.
